Data from patent US8664277B2, “Compounds and methods for PKCθ inhibition” (Complegen Partners, LLC, priority 2008, dated 2014).
Where two headings read alike, the source gives them in different places.

Experiments:
PKC eta = target: T1, PKC eta (Homo sapiens, UniProt P24723); assay: XenoGene counter-screen, PKC eta; assay type: cell-based; settings: inverse of (PKC-theta IC50)/(PKC-X IC50)
T1 construct: expressed in transfected cells; host or cells: yeast (XenoGene strain)
Description: (§1) To identify compounds as being selective PKC theta inhibitors the IC50 values are determined against XenoGene™ strains containing other XenoGenes™, especially certain other PKC genes (see Example 10).
(§2) Human PKC theta gene (cDNA) was used to generate a XenoGene™ system as previously described (U.S. Pat. Nos. 6,998,261, 6,232,074), which was used to screen compounds in a chemical compound library. XenoGene™ systems used as counter-screens were constructed similarly using the gene for the appropriate counter-screen target. In particular, human genes (cDNA) encoding PKC delta, PKC eta and PKC epsilon were used to generate XenoGene™ systems.

yeast PKC1 = target: T2, yeast PKC1 (Saccharomyces cerevisiae, UniProt P24583); assay: XenoGene counter-screen, yeast PKC1; assay type: cell-based; settings: inverse of (PKC-theta IC50)/(PKC-X IC50)
T2 construct: endogenous in cells; host or cells: yeast control strain
T2 sequence (P24583 1-1151): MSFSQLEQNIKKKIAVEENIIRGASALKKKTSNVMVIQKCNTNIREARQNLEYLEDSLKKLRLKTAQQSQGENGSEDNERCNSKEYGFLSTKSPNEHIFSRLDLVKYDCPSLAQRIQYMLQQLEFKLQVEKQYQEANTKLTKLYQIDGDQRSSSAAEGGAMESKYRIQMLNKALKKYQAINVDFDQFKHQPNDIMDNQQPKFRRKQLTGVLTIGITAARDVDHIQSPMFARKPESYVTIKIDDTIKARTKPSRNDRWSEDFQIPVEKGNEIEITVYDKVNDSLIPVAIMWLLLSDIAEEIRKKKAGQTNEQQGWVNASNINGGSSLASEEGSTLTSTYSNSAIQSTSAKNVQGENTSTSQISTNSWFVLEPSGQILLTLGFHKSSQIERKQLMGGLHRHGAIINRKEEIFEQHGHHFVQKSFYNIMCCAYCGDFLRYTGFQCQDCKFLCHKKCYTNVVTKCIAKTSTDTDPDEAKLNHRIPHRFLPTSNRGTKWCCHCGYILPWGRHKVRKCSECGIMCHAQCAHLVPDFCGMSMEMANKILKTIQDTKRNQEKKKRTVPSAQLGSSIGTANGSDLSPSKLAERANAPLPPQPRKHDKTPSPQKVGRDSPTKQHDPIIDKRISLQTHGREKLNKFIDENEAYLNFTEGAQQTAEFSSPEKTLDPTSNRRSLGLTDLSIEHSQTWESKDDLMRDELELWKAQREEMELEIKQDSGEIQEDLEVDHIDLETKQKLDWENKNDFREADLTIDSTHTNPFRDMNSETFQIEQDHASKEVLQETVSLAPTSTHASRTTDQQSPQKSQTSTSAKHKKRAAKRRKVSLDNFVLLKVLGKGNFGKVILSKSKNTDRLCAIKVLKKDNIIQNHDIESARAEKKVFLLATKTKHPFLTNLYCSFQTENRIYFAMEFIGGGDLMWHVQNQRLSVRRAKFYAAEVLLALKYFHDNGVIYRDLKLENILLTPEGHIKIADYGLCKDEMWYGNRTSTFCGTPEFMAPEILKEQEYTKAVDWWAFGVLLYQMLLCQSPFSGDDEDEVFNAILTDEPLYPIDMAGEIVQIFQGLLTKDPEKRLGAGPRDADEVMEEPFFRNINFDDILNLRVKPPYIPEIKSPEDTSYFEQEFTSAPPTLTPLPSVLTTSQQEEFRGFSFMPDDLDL
Description: Using the XenoGene™ system described within, compounds inhibiting PKCθ are identified. The XenoGene™ system is a technology developed and patented by CompleGen wherein genes (“XenoGenes”™) from a target organism (e.g. humans) are used to functionally replace essential genes of a simple organism (yeast). These modified yeast are used to select compounds that act specifically on the protein encoded by the target gene and eliminate compounds that are not specific. XenoGene™ constructs provide a very high throughput screening system that allows identification of compounds active on the function of the target protein in a cell under physiological conditions on “first-pass” screening and further, to selectively counter-screen against 200 human targets or more if necessary. […] The relative potencies of the active compounds is determined by titration to find the concentration of compound providing 50% inhibition of growth (IC50) against the yeast containing the target gene (Table 1).
as §2

Human PKC theta = target: T3, Human PKC theta (Homo sapiens, UniProt Q04759); assay: XenoGene yeast growth inhibition, yeast containing human PKC theta gene; assay type: cell-based
T3 construct: expressed in transfected cells; host or cells: yeast (XenoGene strain)
T3 sequence (Q04759 whole entry): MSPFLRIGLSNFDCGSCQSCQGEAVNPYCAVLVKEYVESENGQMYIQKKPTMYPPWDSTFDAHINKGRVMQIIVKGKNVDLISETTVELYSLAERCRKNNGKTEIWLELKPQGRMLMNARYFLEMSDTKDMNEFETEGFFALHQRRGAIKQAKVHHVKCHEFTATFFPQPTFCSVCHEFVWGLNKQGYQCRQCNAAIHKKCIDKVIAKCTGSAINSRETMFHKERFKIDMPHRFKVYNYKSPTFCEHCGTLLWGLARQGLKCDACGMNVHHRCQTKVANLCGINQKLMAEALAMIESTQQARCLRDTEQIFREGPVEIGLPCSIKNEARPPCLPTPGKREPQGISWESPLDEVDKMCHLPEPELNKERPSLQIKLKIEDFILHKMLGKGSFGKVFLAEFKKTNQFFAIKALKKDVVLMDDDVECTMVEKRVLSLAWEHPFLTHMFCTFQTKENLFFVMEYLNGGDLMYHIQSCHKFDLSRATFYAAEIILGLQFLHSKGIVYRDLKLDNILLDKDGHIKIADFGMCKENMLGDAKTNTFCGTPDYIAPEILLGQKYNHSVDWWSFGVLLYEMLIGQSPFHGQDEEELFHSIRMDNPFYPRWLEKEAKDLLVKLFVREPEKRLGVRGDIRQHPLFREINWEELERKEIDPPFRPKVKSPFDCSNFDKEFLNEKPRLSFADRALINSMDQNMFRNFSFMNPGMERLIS
Description: Using the XenoGene™ system described within, compounds inhibiting PKCθ are identified. The XenoGene™ system is a technology developed and patented by CompleGen wherein genes (“XenoGenes”™) from a target organism (e.g. humans) are used to functionally replace essential genes of a simple organism (yeast). These modified yeast are used to select compounds that act specifically on the protein encoded by the target gene and eliminate compounds that are not specific. […]

Mouse splenic T cells = assay: Inhibition of naive T cell activation (anti-CD3/anti-CD28), 3H-TdR incorporation; assay type: cell-based; settings: three days, control without compound 31571
Description: Inhibition of naïve T cell activation by compound 471. Mouse splenic T cells were isolated from unimmunized mice by magnetic negative selection (Miltenyi®, Untouched T Cell Isolation Kit) or FACS using anti-CD3-PE-Cy7. Isolated T cells were incubated in microtiter wells coated with anti-CD3 monoclonal antibody and soluble anti-CD28 monoclonal antibody, 10^5 cells/100 μl in 10% FBS-RPMI as above, for three days. Proliferation was measured by ^3H-TdR incorporation.

PKC epsilon = target: T4, PKC epsilon (Homo sapiens, UniProt Q02156); assay: XenoGene counter-screen, PKC epsilon; assay type: cell-based; settings: inverse of (PKC-theta IC50)/(PKC-X IC50)
T4 construct: expressed in transfected cells; host or cells: yeast (XenoGene strain)
T4 sequence (Q02156 1-737): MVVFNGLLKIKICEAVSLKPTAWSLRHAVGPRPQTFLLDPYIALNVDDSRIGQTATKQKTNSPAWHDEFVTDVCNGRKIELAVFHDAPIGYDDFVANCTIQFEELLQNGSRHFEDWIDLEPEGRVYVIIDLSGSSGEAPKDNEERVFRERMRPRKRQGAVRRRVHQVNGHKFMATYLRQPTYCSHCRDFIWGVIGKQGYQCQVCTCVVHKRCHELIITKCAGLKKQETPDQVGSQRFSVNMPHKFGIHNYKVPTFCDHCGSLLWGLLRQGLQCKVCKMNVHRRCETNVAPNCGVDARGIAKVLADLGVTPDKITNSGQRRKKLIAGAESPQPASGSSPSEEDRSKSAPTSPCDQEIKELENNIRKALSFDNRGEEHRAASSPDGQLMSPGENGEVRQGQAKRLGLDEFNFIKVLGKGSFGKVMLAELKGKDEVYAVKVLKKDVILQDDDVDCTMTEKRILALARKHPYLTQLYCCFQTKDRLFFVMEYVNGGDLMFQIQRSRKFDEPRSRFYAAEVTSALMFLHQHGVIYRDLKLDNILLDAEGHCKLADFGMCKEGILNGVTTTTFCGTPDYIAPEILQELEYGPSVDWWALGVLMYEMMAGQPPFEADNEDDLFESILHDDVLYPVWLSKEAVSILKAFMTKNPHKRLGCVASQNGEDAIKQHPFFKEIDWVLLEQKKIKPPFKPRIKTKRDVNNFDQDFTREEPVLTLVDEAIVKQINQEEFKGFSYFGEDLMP
Description: as §1, §2

T cell lymphomas = assay: Inhibition of T cell lymphomas, live cells counted by flow cytometry; assay type: cell-based, mouse; settings: for EC50: Mus musculus, T-cell, 96 h, 4 days growth
Description: The compounds of the present invention can also be screened for the ability to inhibit T cell lymphomas. Assays for inhibiting T cell lymphomas are known to one of skill in the art. In some embodiments, the assay involves mice generated from the nucleus of a mature T cell with a “fixed” rearranged T cell receptor. These T cells spontaneously generate T cell lymphomas which resemble human T cell lymphomas. T cell lymphomas isolated from the mice can then be treated with compounds of the present invention. After sufficient time to allow for cell growth, live cells are counted by flow cytometry (Serwold et al. (2007) J. Immunol. 179; 928). One of skill in the art will appreciate that other assays are useful in the present invention.
(§3) Mice generated from the nucleus of a mature T cell (see Hochedlinger K, Jaenisch R. (2002) Nature 415; 1035) with a “fixed” rearranged T cell receptor spontaneously generate T cell lymphomas which resemble human T cell lymphomas. Several T cell lymphomas (1-4) isolated from these mice were treated with compound 471. All T cell lymphomas were inhibited by compound 471. A B-cell hybridoma served as a non-T cell control and was not affected by the compound. Cells were seeded into 96-well plates (5,000 cells/well) in the presence of compound 471 at concentrations ranging from 0.1 to 5 uM. After 4 days growth (37° C., 5% CO2), live cells were counted by flow cytometry (Serwold et al. (2007) J. Immunol. 179; 928)

B-cell hybridoma = B-cell hybridoma non-T cell control, live cells counted by flow cytometry; assay type: cell-based
Description: as §3

PKC delta = target: T5, PKC delta (Homo sapiens, UniProt Q05655); assay: XenoGene counter-screen, PKC delta; assay type: cell-based; settings: inverse of (PKC-theta IC50)/(PKC-X IC50)
T5 construct: expressed in transfected cells; host or cells: yeast (XenoGene strain)
T5 sequence (Q05655 whole entry): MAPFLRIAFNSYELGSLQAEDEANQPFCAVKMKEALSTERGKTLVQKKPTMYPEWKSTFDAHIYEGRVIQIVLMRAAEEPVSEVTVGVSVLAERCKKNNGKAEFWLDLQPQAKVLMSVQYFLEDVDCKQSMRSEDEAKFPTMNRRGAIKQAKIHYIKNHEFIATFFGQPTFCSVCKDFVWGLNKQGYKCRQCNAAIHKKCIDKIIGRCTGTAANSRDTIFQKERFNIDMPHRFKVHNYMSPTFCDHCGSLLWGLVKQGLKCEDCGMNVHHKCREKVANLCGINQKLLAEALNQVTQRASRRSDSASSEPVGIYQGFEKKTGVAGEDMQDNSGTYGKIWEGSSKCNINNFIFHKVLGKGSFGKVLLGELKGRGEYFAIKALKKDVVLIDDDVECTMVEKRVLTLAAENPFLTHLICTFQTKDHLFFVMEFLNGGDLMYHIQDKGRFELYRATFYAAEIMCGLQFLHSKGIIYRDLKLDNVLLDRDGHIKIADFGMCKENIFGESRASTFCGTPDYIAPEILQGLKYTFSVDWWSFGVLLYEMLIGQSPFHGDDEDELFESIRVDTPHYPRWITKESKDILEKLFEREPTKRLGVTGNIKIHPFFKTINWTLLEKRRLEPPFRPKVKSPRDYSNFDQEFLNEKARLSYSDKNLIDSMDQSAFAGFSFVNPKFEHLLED
Description: as §1, §2

[1] = 50% inhibition of growth of yeast containing the target gene, read-out: IC50
[2] = XenoGene system, read-out: PKC-theta IC50
[3] = IC50, 50% inhibition of growth of yeast containing the target gene

T1 sequence (P24723 whole entry): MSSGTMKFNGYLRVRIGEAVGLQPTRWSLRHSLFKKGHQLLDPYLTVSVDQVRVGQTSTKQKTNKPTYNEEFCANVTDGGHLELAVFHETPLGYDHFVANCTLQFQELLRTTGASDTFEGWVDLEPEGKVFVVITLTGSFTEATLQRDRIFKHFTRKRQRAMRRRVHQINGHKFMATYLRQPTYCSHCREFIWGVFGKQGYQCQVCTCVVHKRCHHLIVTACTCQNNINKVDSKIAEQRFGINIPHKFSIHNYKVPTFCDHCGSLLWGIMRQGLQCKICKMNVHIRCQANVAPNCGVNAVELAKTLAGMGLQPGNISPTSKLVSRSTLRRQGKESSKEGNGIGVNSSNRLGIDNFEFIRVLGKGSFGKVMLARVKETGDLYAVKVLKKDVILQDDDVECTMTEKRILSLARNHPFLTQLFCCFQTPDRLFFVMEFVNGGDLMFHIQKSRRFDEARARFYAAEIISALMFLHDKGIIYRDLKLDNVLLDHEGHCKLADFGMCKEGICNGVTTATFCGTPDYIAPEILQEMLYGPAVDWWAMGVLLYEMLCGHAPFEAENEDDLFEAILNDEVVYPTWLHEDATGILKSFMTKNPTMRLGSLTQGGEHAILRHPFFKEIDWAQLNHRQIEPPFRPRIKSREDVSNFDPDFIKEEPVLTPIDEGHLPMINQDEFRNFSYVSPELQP

Compound | Selectivity for PKC-theta v. PKC-eta (PKC eta) | IC50 (Human PKC theta; [1]) [nM] | IC50 (Human PKC theta; [2]) [nM] | Selectivity for PKC-theta v. PKC-epsilon (PKC epsilon) | Selectivity for PKC-theta v. PKC-delta (PKC delta) | also measured
CC(C)(C)c1ccc(Oc2ccc(N)cc2)cc1 [Compound 471] | 0.36 | < 1000 | 140 | 1.1 | 2.5 | Selectivity for PKC-theta v. yeast PKC1 (yeast PKC1): 28; 3H-TdR cpm (Mouse splenic T cells; 0.5 uM compound): 21928 cpm; 3H-TdR cpm (Mouse splenic T cells; 1.0 uM compound): 880 cpm; EC50 (T cell lymphomas; Lymphoma 1): 700 nM; EC50 (T cell lymphomas; Lymphoma 2): 200 nM; EC50 (T cell lymphomas; Lymphoma 4): < 100 nM; EC50 (T cell lymphomas; Lymphoma 5): 700 nM; Inhibition of T cell lymphomas (T cell lymphomas; all T cell lymphomas, 0.1 to 5 uM): inhibited; EC50 (B-cell hybridoma; 96 h, B-cell Hybridoma, 4 days growth): > 5000 nM; Effect on B-cell hybridoma (B-cell hybridoma; non-T cell control, 0.1 to 5 uM): not affected
Nc1ccc(Oc2ccc(C(F)(F)F)cc2Cl)cc1 [Compound 499] | – | – | – | – | – | IC50 (Human PKC theta; [3]): < 1000 nM
Nc1ccc(Oc2ccccc2)cc1 [Compound 500] | – | > 10000 | – | – | – | –
CC(=O)Nc1ccc(Oc2ccc(Cl)cc2Cl)cc1 [Compound 501] | – | – | – | – | – | IC50 (Human PKC theta; [3]): > 10000 nM
Nc1ccc(Oc2cc(Cl)cc(Cl)c2)cc1 [Compound 504] | 1.8 | 1000 to 10000 | 1600 | 8.8 | 8.1 | –
Cc1cc(Oc2ccc(N)cc2)ccc1Cl [Compound 505] | 3.0 | < 1000 | 400 | 11 | 13 | –
Nc1ccc(Oc2ccc(Cl)cc2Cl)cc1 [Compound 506, 4-(2,4-dichlorophenoxy)aniline] | 0.63 | 1000 to 10000 | 1600 | 2.5 | 1.9 | Selectivity for PKC-theta v. yeast PKC1 (yeast PKC1): 9.4

The next lines start with results.

Selectivity for PKC-theta v. PKC-eta (PKC eta) | IC50 (Human PKC theta; [1]) [nM] | IC50 (Human PKC theta; [2]) [nM] | Selectivity for PKC-theta v. PKC-epsilon (PKC epsilon) | Selectivity for PKC-theta v. PKC-delta (PKC delta) | Compound | also measured
– | > 10000 | – | – | – | CC(C)(C)c1ccc(Oc2ccc(N)nc2)cc1 [Compound 486] | –
– | < 1000 | – | – | – | Nc1ccc(Oc2ccc(OC(F)(F)F)cc2Cl)cc1 [Compound 498] | –
– | 1000 to 10000 | – | – | – | Cc1cc(Oc2ccc(N)cc2)ccc1Cl [Compound 507] | –
– | 1000 to 10000 | – | – | – | Cc1ccc(Oc2ccc(N)cc2)cc1 [Compound 508] | –
– | < 1000 | – | – | – | Nc1ccc(Oc2ccc(OC(F)(F)F)cc2)cc1 [Compound 510] | –
